# Experiments:
# Type in all cases: cell-based
# OCT4 (FKBP-tagged) [1] = biological target: T1, OCT4 (FKBP-tagged) (Mus musculus, UniProt P20263+Q8C7D2); assay: RNA-seq after OCT4 degradation in OCT4-FKBP ESCs; details: dTag 24 hours versus DMSO
# T1 construct: an ESC line bearing endogenous knock-in of DNA encoding the FKBP protein fused to OCT4; HA (C); endogenous in cells; host or cells: V6.5 mouse ES cells (Med1-mEGFP background), homozygous Oct4-FKBP knock-in
# Method: RNA-Seq was performed in the indicated cell line with the indicated treatment, and used to determine expressed genes. RNA was isolated by AllPrep Kit (Qiagen 80204) and stranded polyA selected libraries was prepared using the TruSeq Stranded mRNA Library Prep Kit (Illumina, RS-122-2101) according to manufacturer's protocol and single-end sequenced on a Hi-seq 2500 instrument.
# The CRISPR/Cas9 system was used to genetically engineer ESC lines. Target-specific oligonucleotides were cloned into a plasmid carrying a codon-optimized version of Cas9 with GFP (gift from R. Jaenisch). The sequences of the DNA targeted (the protospacer adjacent motif is underlined) are listed in the same table. […]
# For analysis, raw reads were aligned to the mm9 revision of the mouse reference genome using hisat2 with default parameters. Gene name-level read count quantification was performed with htseq-count with parameters -I gene_id -stranded=reverse -f bam -m intersection-strict and a GTF containing transcript positions from Refseq, downloaded 6/6/18. Normalized counts, normalized fold-changes, and differential expression p values were determined using DEseq2 using the standard workflow and both replicates of each condition.
# OCT4 (FKBP-tagged) [2] = biological target: T1, OCT4 (FKBP-tagged); assay: Western blot after OCT4 degradation in OCT4 degron line; details: dTag versus DMSO
# Method: Cells were lysed in Cell Lytic M (Sigma-Aldrich C2978) with protease inhibitors (Roche, 11697498001). Lysate was run on a 3%-8% Tris-acetate gel or 10% Bis-Tris gel or 3-8% Bis-Tris gels at 80 V for ˜2 hrs, followed by 120 V until dye front reached the end of the gel. Protein was then wet transferred to a 0.45 μm PVDF membrane (Millipore, IPVH00010) in ice-cold transfer buffer (25 mM Tris, 192 mM glycine, 10% methanol) at 300 mA for 2 hours at 4° C. After transfer the membrane was blocked with 5% non-fat milk in TBS for 1 hour at room temperature, shaking. Membrane was then incubated with 1:1,000 of the indicated antibody (Table S4) diluted in 5% non-fat milk in TBST and incubated overnight at 4° C., with shaking. In the morning, the membrane was washed three times with TBST for 5 minutes at room temperature shaking for each wash. Membrane was incubated with 1:5,000 secondary antibodies for 1 hr at RT and washed three times in TBST for 5 minutes. Membranes were developed with ECL substrate (Thermo Scientific, 34080) and imaged using a CCD camera or exposed using film or with high sensitivity ECL.
# The CRISPR/Cas9 system was used to genetically engineer ESC lines. Target-specific oligonucleotides were cloned into a plasmid carrying a codon-optimized version of Cas9 with GFP (gift from R. Jaenisch). […]
# OCT4 (FKBP-tagged) [3] = biological target: T1, OCT4 (FKBP-tagged); assay: MED1 IF with DNA FISH at Nanog after OCT4 degradation; details: dTag versus DMSO
# Method: Immunofluorescence was performed as previously above. After incubating the cells with the secondary antibodies, cells were washed three times in PBS for 5 min at RT, fixed with 4% PFA in PBS for 10 min and washed three times in PBS. Cells were incubated in 70% ethanol, 85% ethanol and then 100% ethanol for 1 minute at RT. Probe hybridization mixture was made mixing 7 μL of FISH Hybridization Buffer (Agilent G9400A), 1 μl of FISH probes (see below for region) and 2 μL of water. 5 μL of mixture was added on a slide and coverslip was placed on top (cell-side toward the hybridization mixture). Coverslip was sealed using rubber cement. Once rubber cement solidified, genomic DNA and probes were denatured at 78° C. for 5 minutes and slides were incubated at 16° C. in the dark O/N. The coverslip was removed from slide and incubated in pre-warmed Wash buffer 1 (Agilent, G9401A) at 73° C. for 2 minutes and in Wash Buffer 2 (Agilent, G9402A) for 1 minute at RT. […]
# For analysis of RNA FISH with immunofluorescence custom in-house MATLAB™ scripts were written to process and analyze 3D image data gathered in FISH (RNA/DNA) and IF channels. […] The IF signal centered at FISH foci for each FISH and IF pair are then combined and an average intensity projection is calculated, providing averaged data for IF signal intensity within a l×l square centered at FISH foci. […]
# [4] = test system: ER LBD-MED1 condensate in U2OS-Lac cells; assay: Live cell imaging of U2OS-Lac cells with endogenously tagged MED1-mEGFP; details: after 10 nM B-Estradiol 45 minutes; 10 uM 4-Hydroxytamoxifen, 30 minutes
# Method: Cells were imaged pre-treatment and 30 minutes after treatment with a 1:1000 dilution of DMSO or 10 uM 4-Hydroxytamoxifen in Estrogen-free DMEM. Quantification was performed in FIJI; the instrument background was subtracted from the average signal intensity in the array, then divided by the instrument background subtracted from an average nuclear signal to yield the normalized signal intensity.
# T1 sequence (P20263 with tags, fused parts or gaps): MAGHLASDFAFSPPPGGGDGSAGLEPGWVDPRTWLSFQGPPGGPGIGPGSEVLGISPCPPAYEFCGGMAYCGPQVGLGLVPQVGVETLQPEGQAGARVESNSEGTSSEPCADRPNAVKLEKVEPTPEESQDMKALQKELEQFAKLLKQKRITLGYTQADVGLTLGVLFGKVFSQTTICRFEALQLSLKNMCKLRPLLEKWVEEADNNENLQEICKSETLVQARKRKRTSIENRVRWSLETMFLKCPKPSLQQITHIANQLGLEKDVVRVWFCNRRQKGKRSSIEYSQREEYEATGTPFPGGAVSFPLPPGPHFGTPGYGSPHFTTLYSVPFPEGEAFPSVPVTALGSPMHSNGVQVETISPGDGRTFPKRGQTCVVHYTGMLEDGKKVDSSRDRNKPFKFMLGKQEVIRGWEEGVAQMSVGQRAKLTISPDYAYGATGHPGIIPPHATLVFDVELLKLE
# T1 sequence (Q8C7D2 whole entry, the tested form may be a part): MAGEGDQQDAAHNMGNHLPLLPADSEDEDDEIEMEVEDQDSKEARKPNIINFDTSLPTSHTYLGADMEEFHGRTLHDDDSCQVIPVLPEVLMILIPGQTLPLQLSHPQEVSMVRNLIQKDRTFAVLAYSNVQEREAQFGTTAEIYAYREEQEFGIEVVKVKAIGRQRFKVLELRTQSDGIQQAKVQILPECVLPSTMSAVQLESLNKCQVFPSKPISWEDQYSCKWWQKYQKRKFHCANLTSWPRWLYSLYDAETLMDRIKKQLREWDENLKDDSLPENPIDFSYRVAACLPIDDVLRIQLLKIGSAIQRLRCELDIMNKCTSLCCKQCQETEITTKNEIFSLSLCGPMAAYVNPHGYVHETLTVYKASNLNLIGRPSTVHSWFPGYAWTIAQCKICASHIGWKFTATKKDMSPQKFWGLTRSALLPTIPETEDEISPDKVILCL
# T1 sequence (Q3U1J4 whole entry partner, the tested form may be a part): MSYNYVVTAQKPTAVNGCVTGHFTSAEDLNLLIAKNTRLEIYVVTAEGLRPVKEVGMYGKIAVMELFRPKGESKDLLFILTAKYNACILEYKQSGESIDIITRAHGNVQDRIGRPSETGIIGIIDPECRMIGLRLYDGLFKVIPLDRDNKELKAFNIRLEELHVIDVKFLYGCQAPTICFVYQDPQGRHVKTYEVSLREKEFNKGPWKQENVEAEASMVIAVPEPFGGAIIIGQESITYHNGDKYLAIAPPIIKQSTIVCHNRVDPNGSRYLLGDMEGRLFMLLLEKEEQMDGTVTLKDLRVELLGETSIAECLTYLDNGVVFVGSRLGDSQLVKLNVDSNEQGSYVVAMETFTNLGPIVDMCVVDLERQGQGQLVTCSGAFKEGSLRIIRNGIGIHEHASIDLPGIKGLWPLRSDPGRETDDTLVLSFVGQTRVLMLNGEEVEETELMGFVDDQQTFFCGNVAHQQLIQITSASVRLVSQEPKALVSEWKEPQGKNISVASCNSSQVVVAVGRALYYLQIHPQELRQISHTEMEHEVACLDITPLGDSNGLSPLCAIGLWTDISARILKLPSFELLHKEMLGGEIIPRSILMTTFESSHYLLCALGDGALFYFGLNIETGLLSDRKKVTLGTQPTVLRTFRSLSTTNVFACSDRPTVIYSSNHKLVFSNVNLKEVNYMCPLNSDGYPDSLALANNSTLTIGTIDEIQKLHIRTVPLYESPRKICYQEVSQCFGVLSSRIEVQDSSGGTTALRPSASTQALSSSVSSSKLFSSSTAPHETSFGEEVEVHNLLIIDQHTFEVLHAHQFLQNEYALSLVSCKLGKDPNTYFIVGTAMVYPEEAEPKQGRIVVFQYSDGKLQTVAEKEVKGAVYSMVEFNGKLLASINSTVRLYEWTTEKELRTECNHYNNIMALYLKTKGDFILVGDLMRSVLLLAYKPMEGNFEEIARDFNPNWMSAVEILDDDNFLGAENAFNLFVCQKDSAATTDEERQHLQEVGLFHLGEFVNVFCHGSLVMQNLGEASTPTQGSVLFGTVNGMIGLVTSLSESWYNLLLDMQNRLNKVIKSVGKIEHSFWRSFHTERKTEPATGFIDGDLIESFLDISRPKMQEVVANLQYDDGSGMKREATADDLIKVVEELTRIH
expression of SE-driven genes (OCT4 (FKBP-tagged) [1]),reduction in Nanog mRNA levels (OCT4 (FKBP-tagged) [1]),MED1 protein levels (OCT4 (FKBP-tagged) [2]),OCT4 protein levels (OCT4 (FKBP-tagged) [2]),MED1 condensates at Nanog (OCT4 (FKBP-tagged) [3]),SMILES,"Effect on ER LBD-MED1 condensate, live cell imaging [4]"
concomitantly decreased,60%,did not affect MED1 levels,reduced OCT4 protein levels,reduction in MED1 condensates at Nanog,CC[C@H](C(=O)N1CCCC[C@H]1C(=O)O[C@H](CCc1ccc(OC)c(OC)c1)c1ccccc1OCC(=O)NCCCCCCCCNc1ccc2c(c1)C(=O)N(C1CCC(=O)NC1=O)C2=O)c1cc(OC)c(OC)c(OC)c1 (stereo partly drawn) [dTag],–
–,–,–,–,–,CC/C(=C(\c1ccccc1)c1ccc(OCCN(C)C)cc1)c1ccccc1 [tamoxifen],dissolves the ER LBD-MED1 condensate

# From patent US20220120736A1, “METHODS AND ASSAYS FOR MODULATING GENE TRANSCRIPTION BY MODULATING CONDENSATES” (Whitehead Institute for Biomedical Research, priority 2018, published 2022)
